In ChEMBL document CHEMBL1201862, “PubChem BioAssay data set” (2004):
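These data come from cells grown in 96-well plates and exposed to compound for 48 hours at five concentrations. GI50 is the concentration that inhibits growth by half.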 Active and inactive are the calls of the source. Rule as the data show it: active = GI50 up to about 1.1 µM and inactive = higher. Peptide text beside a SMILES is read from it. * marks the point of attachment. Cbz = O=C(OCc1ccccc1)*

Experiments:
Assay in all cases: NCI anticancer screen, dose series, 48 h
HCC 2998 = system: HCC 2998
MDA-N = system: MDA-N
SW-620 = system: SW-620
SK-MEL-2 = system: SK-MEL-2
COLO 205 = system: COLO 205
HT-29 = system: HT-29
SR = system: SR
MCF7 = system: MCF7
SF-268 = system: SF-268
A498 = system: A498
CAKI-1 = system: CAKI-1
SK-MEL-28 = system: SK-MEL-28
NCI-H226 = system: NCI-H226
PC-3 = system: PC-3
Malme-3M = system: Malme-3M
BT-549 = system: BT-549
K562 = system: K562
HCT-116 = system: HCT-116
CCRF-CEM = system: CCRF-CEM
IGROV-1 = system: IGROV-1

Compound	GI50 (HCC 2998)	GI50 (MDA-N)	GI50 (SW-620)	GI50 (SK-MEL-2)	GI50 (COLO 205)	GI50 (HT-29)	GI50 (SR)	GI50 (MCF7)	GI50 (SF-268)	GI50 (A498)	GI50 (CAKI-1)	GI50 (SK-MEL-28)	GI50 (NCI-H226)	GI50 (PC-3)	GI50 (Malme-3M)	GI50 (BT-549)	GI50 (K562)	GI50 (HCT-116)	GI50 (CCRF-CEM)	GI50 (IGROV-1)
O=C(O)CCC(NC(=O)OCc1ccccc1)C(=O)NC(Cc1c[nH]cn1)C(=O)O (stereo not drawn) (Cbz-Glu-His-OH; configuration not given here)	> 100 µM (inactive)	> 100 µM (inactive)	> 100 µM (inactive)	> 100 µM (inactive)	> 100 µM (inactive)	> 100 µM (inactive)	> 100 µM (inactive)	> 100 µM (inactive)	> 100 µM (inactive)	> 100 µM (inactive)	> 100 µM (inactive)	> 100 µM (inactive)	> 100 µM (inactive)	> 100 µM (inactive)	> 100 µM (inactive)	> 100 µM (inactive)	> 100 µM (inactive)	> 100 µM (inactive)	> 100 µM (inactive)	> 100 µM (inactive)
CCCCCCCC(=O)N/N=C/c1ccc(Sc2nccn2C)c([N+](=O)[O-])c1	13.4 µM (inactive)	16.5 µM (inactive)	14.9 µM (inactive)	16.6 µM (inactive)	13.7 µM (inactive)	9.79 µM (inactive)	18.8 µM (inactive)	16.6 µM (inactive)	15.7 µM (inactive)	15.2 µM (inactive)	15.5 µM (inactive)	13.9 µM (inactive)	14.5 µM (inactive)	15.6 µM (inactive)	14.4 µM (inactive)	16.1 µM (inactive)	14.2 µM (inactive)	14.4 µM (inactive)	0.538 µM (active)	6.79 µM (inactive)
NS(=O)(=O)c1nnc(/N=C(/CCC(=O)O)C(=O)O)s1	> 100 µM (inactive)	> 100 µM (inactive)	> 100 µM (inactive)	> 100 µM (inactive)	> 100 µM (inactive)	> 100 µM (inactive)	> 100 µM (inactive)	> 100 µM (inactive)	–	> 100 µM (inactive)	> 100 µM (inactive)	> 100 µM (inactive)	> 100 µM (inactive)	> 100 µM (inactive)	41.3 µM (inactive)	> 100 µM (inactive)	> 100 µM (inactive)	> 100 µM (inactive)	> 100 µM (inactive)	> 100 µM (inactive)
C=C1c2nc3ccccc3n2C=C(c2ccccc2)N1c1ccc(Cl)cc1	65.6 µM (inactive)	78.9 µM (inactive)	26.5 µM (inactive)	69.5 µM (inactive)	> 64.3 µM (inactive)	18.6 µM (inactive)	64.7 µM (inactive)	11.2 µM (inactive)	> 100 µM (inactive)	> 48.9 µM (inactive)	7.08 µM (inactive)	> 100 µM (inactive)	29 µM (inactive)	25.7 µM (inactive)	7.85 µM (inactive)	23.4 µM (inactive)	51.3 µM (inactive)	18.5 µM (inactive)	> 100 µM (inactive)	10.6 µM (inactive)
COc1ccc(C(OCC2OC(n3cc(C)c(=O)[nH]c3=O)CC2n2cc(Cn3cc(I)c(=O)[nH]c3=O)nn2)(c2ccccc2)c2ccccc2)cc1 (stereo not given)	> 100 µM (inactive)	> 100 µM (inactive)	> 100 µM (inactive)	> 100 µM (inactive)	> 100 µM (inactive)	> 100 µM (inactive)	> 100 µM (inactive)	> 100 µM (inactive)	78.5 µM (inactive)	> 100 µM (inactive)	> 100 µM (inactive)	> 100 µM (inactive)	> 100 µM (inactive)	> 100 µM (inactive)	> 100 µM (inactive)	> 100 µM (inactive)	–	> 100 µM (inactive)	11.2 µM (inactive)	> 100 µM (inactive)
CN(C)c1ccc(/C=C2\N=C(c3ccccc3)N(c3ccc4c(c3)Sc3cc(N5C(=O)/C(=C/c6ccc(N(C)C)cc6)N=C5c5ccccc5)ccc3N4)C2=O)cc1	19.6 µM (inactive)	53.8 µM (inactive)	44.7 µM (inactive)	18.6 µM (inactive)	> 100 µM (inactive)	54.7 µM (inactive)	90.6 µM (inactive)	17 µM (inactive)	19.2 µM (inactive)	16.8 µM (inactive)	17.9 µM (inactive)	50.8 µM (inactive)	–	16.9 µM (inactive)	–	22.9 µM (inactive)	29.6 µM (inactive)	26.3 µM (inactive)	3.73 µM (inactive)	18.1 µM (inactive)
COC(=O)C12C3C4C1C1C2C3C41C(=O)NC(C)(C)CC(=O)O (stereo not given)	> 100 µM (inactive)	> 100 µM (inactive)	> 100 µM (inactive)	> 100 µM (inactive)	> 100 µM (inactive)	> 100 µM (inactive)	> 100 µM (inactive)	> 100 µM (inactive)	> 100 µM (inactive)	> 100 µM (inactive)	> 100 µM (inactive)	> 100 µM (inactive)	> 100 µM (inactive)	> 100 µM (inactive)	> 100 µM (inactive)	> 100 µM (inactive)	–	> 100 µM (inactive)	> 100 µM (inactive)	> 100 µM (inactive)
